What was measured:
NSP9 = NSP9 (Severe acute respiratory syndrome coronavirus 2, UniProt P0DTC1); assay: biochemical; format: binding, SARS‐CoV‐2
G3BP1 NTF2 = G3BP1 NTF2 (Homo sapiens, UniProt Q13283); assay: biochemical; format: binding
G3BP1 NFT2 = format: binding, human; details: library DMS-BM; bait G3BP1 NFT2; prey CAPRIN1; AQMQGPYNFIQDSM(averaged): mean of the two overlapping peptides over the shared positions

Sequence of G3BP1 NTF2 (Q13283 1-139): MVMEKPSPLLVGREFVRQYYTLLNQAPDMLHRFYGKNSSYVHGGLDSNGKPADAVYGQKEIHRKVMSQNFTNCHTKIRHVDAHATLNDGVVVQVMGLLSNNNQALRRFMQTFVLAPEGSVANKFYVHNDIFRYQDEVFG

| Substance | DMS position-specific score (PSSM value) per amino-acid substitution, averaged (G3BP1 NFT2) | further results |
| --- | --- | --- |
| Ac-QGAWLGIPEPWEPLLD-NH2 [NOTCH4 A1612I] | – | IC50 (NSP9): 149 µM; Kd (NSP9): 50 µM |
| Ac-QGAWLGAPEPWFPLLD-NH2 [NOTCH4 E1617F] | – | IC50 (NSP9): 109 µM; Kd (NSP9): 35 µM |
| Ac-APRITFGGFSDSTGSY-NH2 [N P20F] | – | IC50 (G3BP1 NTF2): 44 µM; Kd (G3BP1 NTF2): 14 µM |
| Ac-QGAWLPAPEPWEPLLD-NH2 [NOTCH4 G1611P] | – | Kd (NSP9): 410 µM |
| Ac-QGVWLGAPEPWEPLLD-NH2 [NOTCH4 A1608V] | – | IC50 (NSP9): 59 µM; Kd (NSP9): 16 µM |
| Ac-APRITFGGPYDSTGSY-NH2 [N S21Y] | – | IC50 (G3BP1 NTF2): 16 µM; Kd (G3BP1 NTF2): 4.7 µM |
| Ac-QGVWLGAVEPWEPLLD-NH2 [NOTCH4 A1608V P1613V] | – | IC50 (NSP9): 33.4 µM; Kd (NSP9): 5.9 µM |
| Ac-QGAWLGAPEPYEPLLD-NH2 [NOTCH4 W1616Y] | – | IC50 (NSP9): 167 µM; Kd (NSP9): 57 µM |
| Ac-QGAWLGAPVPWEPLLD-NH2 [NOTCH4 E1614V] | – | IC50 (NSP9): 178 µM |
| Ac-APRITFGAPSDSTGSY-NH2 [N G19A] | – | IC50 (G3BP1 NTF2): 5.2 µM; Kd (G3BP1 NTF2): 1.1 µM |
| Ac-APRITFGGPSDSTGSY-NH2 [N wt] | – | Kd (G3BP1 NTF2): 2.3 µM |
| Ac-APRIEFGGPSDSTGSY-NH2 [N T15E] | – | IC50 (G3BP1 NTF2): 49 µM |
| Ac-QGAWLDAPEPWEPLLD-NH2 [NOTCH4 G1611D] | – | Kd (NSP9): 160 µM |
| Ac-QGSWLGAPEPWEPLLD-NH2 [NOTCH4 A1608S] | – | IC50 (NSP9): 583 µM; Kd (NSP9): 216 µM |
| Ac-QGAWLGAPEPWEPLLD-NH2 [NOTCH4 wt] | – | IC50 (NSP9): 205 µM; Kd (NSP9): 72 µM |
| Ac-QGAWLGAPEYWEPLLD-NH2 [NOTCH4 P1615Y] | – | IC50 (NSP9): 152 µM; Kd (NSP9): 51 µM |
| AQMQGPYNFIQDSM(averaged) Q2K (AKMQGPYNFIQDSM) | 0.006084 | – |
| AQMQGPYNFIQDSM(averaged) G5Q (AQMQQPYNFIQDSM) | 0.004656 | – |
| AQMQGPYNFIQDSM(averaged) D12S (AQMQGPYNFIQSSM) | 0.1749 | – |
| AQMQGPYNFIQDSM(averaged) G5T (AQMQTPYNFIQDSM) | 0.007904 | – |
| AQMQGPYNFIQDSM(averaged) S13V (AQMQGPYNFIQDVM) | 0.1094 | – |
| AQMQGPYNFIQDSM(averaged) Q4E (AQMEGPYNFIQDSM) | 0.0003947 | – |
| AQMQGPYNFIQDSM(averaged) Q11G (AQMQGPYNFIGDSM) | 0.1489 | – |
| AQMQGPYNFIQDSM(averaged) N8I (AQMQGPYIFIQDSM) | 0.06952 | – |
| AQMQGPYNFIQDSM(averaged) Q4Y (AQMYGPYNFIQDSM) | 0.002959 | – |
| AQMQGPYNFIQDSM(averaged) G5N (AQMQNPYNFIQDSM) | 0.002472 | – |
| AQMQGPYNFIQDSM(averaged) S13S | 0.5152 | – |
| AQMQGPYNFIQDSM(averaged) A1A | 0.1937 | – |

| Substance | DMS position-specific score (PSSM value) per amino-acid substitution, averaged (G3BP1 NFT2) | further results |
| --- | --- | --- |
| AQMQGPYNFIQDSM(averaged) S13N (AQMQGPYNFIQDNM) | 0.02537 | – |
| AQMQGPYNFIQDSM(averaged) M14Q (AQMQGPYNFIQDSQ) | 0.06683 | – |
| AQMQGPYNFIQDSM(averaged) Q2H (AHMQGPYNFIQDSM) | 0.02779 | – |
| AQMQGPYNFIQDSM(averaged) D12W (AQMQGPYNFIQWSM) | 0 | – |
| AQMQGPYNFIQDSM(averaged) F9L (AQMQGPYNLIQDSM) | 0.0005113 | – |
| AQMQGPYNFIQDSM(averaged) N8W (AQMQGPYWFIQDSM) | 0.1126 | – |
| Ac-QGAWLGAVEPWEPLLD-NH2 [NOTCH4 P1613V] | – | IC50 (NSP9): 105 µM; Kd (NSP9): 33 µM |
| AQMQGPYNFIQDSM(averaged) D12V (AQMQGPYNFIQVSM) | 0.005056 | – |
| AQMQGPYNFIQDSM(averaged) Q11T (AQMQGPYNFITDSM) | 0.1081 | – |
| AQMQGPYNFIQDSM(averaged) G5G | 0.2298 | – |
| AQMQGPYNFIQDSM(averaged) P6L (AQMQGLYNFIQDSM) | 0.02822 | – |
| AQMQGPYNFIQDSM(averaged) I10R (AQMQGPYNFRQDSM) | 0.001261 | – |
| AQMQGPYNFIQDSM(averaged) D12Q (AQMQGPYNFIQQSM) | 0.008788 | – |
| AQMQGPYNFIQDSM(averaged) N8V (AQMQGPYVFIQDSM) | 0.1991 | – |
| AQMQGPYNFIQDSM(averaged) Q11R (AQMQGPYNFIRDSM) | 0.004534 | – |
| AQMQGPYNFIQDSM(averaged) Q4V (AQMVGPYNFIQDSM) | 0.1002 | – |
| AQMQGPYNFIQDSM(averaged) Q4I (AQMIGPYNFIQDSM) | 0.04808 | – |
| AQMQGPYNFIQDSM(averaged) Y7P (AQMQGPPNFIQDSM) | 0.002813 | – |
| AQMQGPYNFIQDSM(averaged) F9G (AQMQGPYNGIQDSM) | 0.0001993 | – |
| AQMQGPYNFIQDSM(averaged) Q4W (AQMWGPYNFIQDSM) | 0.01813 | – |
| AQMQGPYNFIQDSM(averaged) N8Q (AQMQGPYQFIQDSM) | 0.04567 | – |
| AQMQGPYNFIQDSM(averaged) F9W (AQMQGPYNWIQDSM) | 0 | – |
| AQMQGPYNFIQDSM(averaged) P6W (AQMQGWYNFIQDSM) | 0.02305 | – |
| AQMQGPYNFIQDSM(averaged) S13D (AQMQGPYNFIQDDM) | 0.02096 | – |
| AQMQGPYNFIQDSM(averaged) G5A (AQMQAPYNFIQDSM) | 0.003112 | – |
| AQMQGPYNFIQDSM(averaged) Q2S (ASMQGPYNFIQDSM) | 0.004198 | – |
| AQMQGPYNFIQDSM(averaged) M14A (AQMQGPYNFIQDSA) | 0.06493 | – |

From paper PMC12102759 (Protein Science : A Publication of the Protein Society, 2025)
